Like-named read-outs stand apart in the source and are kept apart here.
Key:
[1] = biological target: T1, CB1 receptor (Mus musculus, UniProt P47746); experiment: [35S]GTPγS binding assay in mouse brain membranes, antagonism of CP55940; assay type: biochemical; set-up: Whole brains from eight adult male mice were dissected and suspended in centrifugation buffer; from tissue; host or cells: mouse whole brain membranes
Description: (§1) The [^35S] GTPγS binding assay is simply a means of measuring G protein activation following agonist occupation of a GPCR. The significance of replacing endogenous GTP with radiolabeled [^35S] GTPγS is two-fold. […] GTPγS. Secondly, as with any radiolabelling, the aim is to allow quantitative analysis of a selected molecular species, in this case the degree of agonist binding can be gauged by measuring the subsequent levels of radioactivity in the desired tissue.
(§2) A vehicle control was an essential aspect of the experiment. […] The vehicle is made up of 10 μL of DMSO and 990 μL of binding buffer, resulting in the assay containing 0.1% vehicle.
(§3) Buffer; [^35S] […] The GTPγS binding assay was initiated by the addition of the [^35S] GTPγS. The assay was incubated at 37° C. in a water bath for 1 hour. The assay was terminated by addition of ice-cold Tris/BSA buffer and rapid vacuum filtration using a 24-well Brandel (cell harvester) and glass-fibre filters that have been soaked in Tris/BSA buffer at 4° C. for 24 hours. Each well was washed 6 times with 1.2 mL of Tris/BSA buffer. The filters were then oven dried for 1 hour. The sections of filter papers were then separated and placed in individual vials, to which 5 mL of scintillation fluid was added. The filter papers were soaked in the scintillation fluid for 1 hour before the radioactivity in each vial was quantified by liquid scintillation spectrometry.
(§4) The data was fitted to a sigmoidal concentration-response curve using GraphPad Prism 4. Significance was defined by a one-sample t-test (GraphPad Prism 4), which compared mean % stimulation values S.E.M. to the basal binding level, 0.0% stimulation.

[2] = biological target: CB1 receptor (Homo sapiens, UniProt P21554); experiment: [35S]GTPγS binding, compound alone, 24 hours FBS-starved CB1 CHO cells; assay type: biochemical; settings: 1 nM to 10 μM
Description: as §1, §2, §3, §4
The vertical lines indicate S.E.M. (standard error of the mean) (*= P<0.05, **= P<0.01, ***= P<0.001, one-sample t-test) (n=4).

[3] = biological target: T1, CB1 receptor; experiment: Electrically-evoked contractions of isolated mouse vas deferens, compound alone; set-up: The isolated vas deferens was then removed from the mouse by cutting through its prostatic end; from tissue; host or cells: isolated vas deferens of male albino MF1 mice; settings: 1 μM, tested alone
Description: (§5) The vas deferens (or ductus deferens) is a muscular tube, approximately 3 mm in diameter and 30 cm in length, connecting the left and right epididymis to the ejaculatory ducts in order to move sperm. It is bound by connective tissue with an ample supply of blood vessels, nerves, and lymphatics. This in vitro bioassay exploits the expression of CB1 receptors on the presynaptic nerve terminals of this tubular structure.
(§6) The animals used in the study were male albino MF1 mice bred and were housed six to eight per-cage and were kept in a temperature-controlled room which was maintained on a fixed light-dark cycle. All mice were given free access to food and water. Subjects used in the study were a minimum of four weeks of age. Each mouse was stunned by striking the back of the head and killed by dislocation of the neck (cervical vertebrae). Following the killing, the mouse body weight was determined. A transverse incision, approximately of 1.5 cm, was made in the skin with the aid of dissection scissors. A similar-sized transverse incision was made through the lower abdominal wall. […] This was used to identify the vas deferens, which is attached to the testis via the epididymis. Gripping the epididymis with forceps, the vas deferens was cut free first from the testis and then from the connective tissue. The isolated vas deferens was then removed from the mouse by cutting through its prostatic end. This procedure was repeated on the right testis. It was important that throughout the latter two stages of this dissection, care was taken to ensure the vas deferens was not overstretched. In addition to their vas deferens, these animals were euthanized for use of their brain and small intestine by fellow researchers in different research fields. This minimisation of the number of animals euthanized complied with the European Community guidelines.
(§7) During transit, the two isolated vas deferens from each mice were kept moist in a glass vial filled with warm modified Mg^2+-free Krebs' solution. Before setting the tissue up in an organ bath, further removal of connective tissue, mesentery, and the epididymis was performed; cotton thread was tied securely to both end of the vas deferens.
(§8) The one-tailed thread was attached to the Pioden UF1 isometric transducer (Harvard Apparatus) and the two-tailed thread hung out of the bottom of the bath. The latter served as an anchor point for applying tension. […] Contractile activity was recorded using the isometric transducer and the output monitored by a computer connected to the data recording and analysis system (MacLab or PowerLab). The tissues were then ready for stimulation. […]

[4] = biological target: T2, cannabinoid CB1 receptor (Mus musculus, UniProt P47746); experiment: Mouse brain competition binding assay, [3H]CP55940 displacement
T2 construct: Whole brains from eight adult male mice were dissected and suspended in centrifugation buffer; from tissue; host or cells: mouse whole brain membranes
Description: The competition binding assay is a […] radioligand binding assay, which determines the affinity of a given compound for a specific receptor site, in this instance, the cannabinoid CB1 receptor. Mouse brain membranes were the chosen tissue due to their high expression of CB1 receptors.
Whole brains from eight adult male mice were dissected and suspended in centrifugation buffer. The brains were then homogenised with a Polytron Homogeniser prior to centrifugation at 1,600 RCF, 4° C. for 10 minutes. Centrifugation produced a supernatant, which was collected, and then the remaining pellet was re-suspended in centrifugation buffer and centrifuged as before. All supernatants were combined, and centrifuged at 28,000 RCF, 4° C. for a further 20 minutes. The supernatant was then discarded and the pellet re-suspended in Buffer A before incubation for 10 minutes at 37° C. The membrane suspension was then centrifuged at RCF 23,000, 4° C. for 20 minutes. The pellet was then re-suspended in Buffer A and incubated for 40 minutes at room temperature. The suspension was then centrifuged for 15 minutes at RCF 11,000, 4° C., and the pellet was then re-suspended in Buffer B. Finally a Protein Assay was carried out to determine the protein content of the mouse membrane preparation. The membrane samples were then made up into 1 mL aliquots of 1 mg/mL protein concentration and stored at −80° C. The samples were removed and defrosted when they were required.
The competition binding assay utilizes standard binding buffer, comprising:
10 μL of 1 mM stock of CP55940 in DMSO was added to 990 μL of binding buffer.
This was essential to obtain a value for specific binding, which is defined as the difference between the binding that occurs in the presence and absence of […] unlabelled CP55940.
as §3, with “[^3H]” for “[^35S]”, “competition” for “GTPγS binding”, “membranes.” for “[^35S] GTPγS.”, “had” for “have”
Data were fitted to a one-site competition curve using GraphPad Prism 4.

[5] = biological target: T1, CB1 receptor; experiment: Electrically-evoked contractions of mouse isolated vas deferens, antagonism of CP55940; set-up: The isolated vas deferens was then removed from the mouse by cutting through its prostatic end; from tissue; host or cells: isolated vas deferens of male albino MF1 mice
Description: as §5, §6, §7, §8

[6] = biological target: T1, CB1 receptor; experiment: [35S]GTPγS binding, compound alone (Table 2, Function); assay type: biochemical; set-up: from tissue
Description: as §1, §2, §3, §4

[7] = patients, clinical trials; cited from earlier work
[8] = mouse brain membranes, [3H]CP55940 0.7 nM, read-out: Ki (nM) [affinity] Mouse Brain [3H]CP55940 Displacement

T1 sequence (P47746 whole entry): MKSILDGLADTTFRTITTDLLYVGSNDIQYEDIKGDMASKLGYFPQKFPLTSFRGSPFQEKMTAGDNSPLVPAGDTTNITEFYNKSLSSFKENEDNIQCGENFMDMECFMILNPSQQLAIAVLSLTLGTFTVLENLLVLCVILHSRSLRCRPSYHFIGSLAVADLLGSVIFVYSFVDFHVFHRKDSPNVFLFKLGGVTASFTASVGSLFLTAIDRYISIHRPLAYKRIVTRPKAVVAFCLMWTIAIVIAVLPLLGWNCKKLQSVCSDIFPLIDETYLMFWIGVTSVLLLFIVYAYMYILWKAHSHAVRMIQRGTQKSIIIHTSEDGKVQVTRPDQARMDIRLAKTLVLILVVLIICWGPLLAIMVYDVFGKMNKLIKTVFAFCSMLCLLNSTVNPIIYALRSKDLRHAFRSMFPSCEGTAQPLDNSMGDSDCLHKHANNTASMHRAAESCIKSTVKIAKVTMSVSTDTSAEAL
T2 sequence (P47746 whole entry): as above
Chain of CB1 receptor (Homo sapiens, UniProt P21554) (P21554 whole entry): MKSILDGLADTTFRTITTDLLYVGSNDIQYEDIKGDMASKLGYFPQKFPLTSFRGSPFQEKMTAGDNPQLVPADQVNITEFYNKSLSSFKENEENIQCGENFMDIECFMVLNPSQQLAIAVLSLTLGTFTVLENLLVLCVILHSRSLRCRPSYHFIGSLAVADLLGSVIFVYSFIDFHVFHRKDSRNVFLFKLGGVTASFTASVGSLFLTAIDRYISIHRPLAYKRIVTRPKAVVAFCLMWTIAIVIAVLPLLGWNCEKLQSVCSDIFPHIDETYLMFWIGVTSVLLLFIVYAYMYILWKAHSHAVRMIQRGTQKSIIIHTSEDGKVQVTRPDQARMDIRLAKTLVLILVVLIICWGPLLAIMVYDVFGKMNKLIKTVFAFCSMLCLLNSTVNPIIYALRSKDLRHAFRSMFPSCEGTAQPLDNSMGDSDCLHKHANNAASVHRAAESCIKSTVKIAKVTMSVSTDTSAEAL

SMILES | Ki [4, 8] [nM] | Function Mouse Brain [35S]GTPγS Alone ([6]; compound alone) | Ki [4] [nM] | other results
Cc1c(C(=O)CC2CCCCC2)nn(-c2ccc(Cl)cc2Cl)c1-c1ccc(Cl)cc1 [ABD395] | 3.78 | Neutral antagonist | – | Shift in the log concentration response curve for CP55940, [35S]GTPγS [1]: right-ward shift; Effect on [35S]GTPγS binding, compound alone [2]: only a small increase; Effect on electrically-evoked contractions of isolated mouse vas deferens [3]: neither inhibited nor significantly enhanced; Shift in the log concentration response curve for CP55940, vas deferens contraction [5]: right-ward shift
Cc1c(C(=O)CC2CCCCC2)nn(-c2ccc(Cl)cc2Cl)c1-c1ccc(Br)cc1 [ABD399] | – | Neutral antagonist | 12.3 | Shift in the log concentration response curve for CP55940, [35S]GTPγS [1]: right-ward shift; Effect on [35S]GTPγS binding, compound alone [2]: no reduction; Effect on electrically-evoked contractions of isolated mouse vas deferens [3]: neither inhibited nor significantly enhanced; Shift in the log concentration response curve for CP55940, vas deferens contraction [5]: right-ward shift
Cc1c(C(O)CC2CCCCC2)nn(-c2ccc(Cl)cc2Cl)c1-c1ccc(Br)cc1 (stereo not drawn) [ABD402, 1-[5-(4-Bromophenyl)-1-(2,4-dichlorophenyl)-4-methylpyrazol-3-yl]-2-cyclohexylethanol] | – | Neutral antagonist | 32.3 | Shift in the log concentration response curve for CP55940, [35S]GTPγS [1]: right-ward shift; Effect on [35S]GTPγS binding, compound alone [2]: no reduction; Effect on electrically-evoked contractions of isolated mouse vas deferens [3]: neither inhibited nor significantly enhanced; Shift in the log concentration response curve for CP55940, vas deferens contraction [5]: right-ward shift
Cc1cccc(CC(=O)c2nn(-c3ccc(Cl)cc3Cl)c(-c3ccc(Cl)cc3)c2C)c1 [ABD434] | – | – | 7.42 | Function Mouse Brain [35S]GTPγS Alone [6]: Neutral antagonist
Cc1ccc(C(=O)c2nn(-c3ccc(Cl)cc3Cl)c(-c3ccc(Cl)cc3)c2C)cc1C [ABD437] | – | – | 14.2 | Function Mouse Brain [35S]GTPγS Alone [6]: Neutral antagonist
COc1cccc(C(=O)c2nn(-c3ccc(Cl)cc3Cl)c(-c3ccc(Br)cc3)c2C)c1 [ABD438] | – | – | 7.7 | Function Mouse Brain [35S]GTPγS Alone [6]: Neutral antagonist
Cc1c(C(=O)c2cccc(C(F)(F)F)c2)nn(-c2ccc(Cl)cc2Cl)c1-c1ccc(Cl)cc1 [ABD449] | – | – | 64.8 | Function Mouse Brain [35S]GTPγS Alone [6]: Neutral antagonist
COc1ccc(C(=O)c2nn(-c3ccc(Cl)cc3Cl)c(-c3ccc(Br)cc3)c2C)cc1 [ABD459] | 8.6 | Neutral antagonist | – | –
Cc1c(C(=O)NN2CCCCC2)nn(-c2ccc(Cl)cc2Cl)c1-c1ccc(Cl)cc1 [SR141716A, N-(piperidin-1-yl)-5-(4-chlorophenyl)-1-(2,4-dichlorophenyl)-4-methyl-1H-pyrazole-3-carboxamide] | – | – | – | Body weight lost each year [7]: 5-10%; First year drop-out rate due to side effects [7]: 40-50%

The next lines start with results.

Ki [4, 8] [nM] | Function Mouse Brain [35S]GTPγS Alone ([6]; compound alone) | SMILES | Ki [4] [nM] | other results
24.2 | Neutral antagonist | Cc1c(C(=O)Cc2ccccc2)nn(-c2ccc(Cl)cc2Cl)c1-c1ccc(Cl)cc1 [ABD406] | – | Shift in the log concentration response curve for CP55940, [35S]GTPγS [1]: right-ward shift; Effect on [35S]GTPγS binding, compound alone [2]: no reduction; Effect on electrically-evoked contractions of isolated mouse vas deferens [3]: neither inhibited nor significantly enhanced; Shift in the log concentration response curve for CP55940, vas deferens contraction [5]: right-ward shift
7.15 | Neutral antagonist | Cc1c(C(=O)Cc2ccc(F)cc2)nn(-c2ccc(Cl)cc2Cl)c1-c1ccc(Cl)cc1 [ABD436] | – | –
19.7 | Neutral antagonist | COc1cccc(CC(=O)c2nn(-c3ccc(Cl)cc3Cl)c(-c3ccc(Br)cc3)c2C)c1 [ABD439] | – | –
27.1 | Neutral antagonist | Cc1ccc(CC(=O)c2nn(-c3ccc(Cl)cc3Cl)c(-c3ccc(Br)cc3)c2C)cc1 [ABD440] | – | –
63.2 | Neutral antagonist | Cc1c(C(=O)c2ccc(F)cc2)nn(-c2ccc(Cl)cc2Cl)c1-c1ccc(Cl)cc1 [ABD450] | – | –
13.8 | Neutral antagonist | Cc1c(C(=O)c2cccc(F)c2)nn(-c2ccc(Cl)cc2Cl)c1-c1ccc(Cl)cc1 [ABD453] | – | –
26.7 | Neutral antagonist | Cc1c(C(=O)c2cccc(OC(F)(F)F)c2)nn(-c2ccc(Cl)cc2Cl)c1-c1ccc(Cl)cc1 [ABD454] | – | –
